Reference: patent US20230085307A1, “PYRIDAZINONE COMPOUND AND HERBICIDE” (NISSAN CHEMICAL CORPORATION, priority 2019, published 2023)

Columns and labels:
green foxtail [1] = test: Test Example 4: herbicidal effect by soil treatment (Table 19, symbol G); type: in vivo, green foxtail (Setaria viridis)
Method in brief: (§1)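 Three weeks of greenhouse growth at 25° C. to 30° C. followed a uniform surface spray of water-diluted emulsion at a predetermined herbicide amount. Seeds had been sown beforehand under about 1.5 cm of sterilized diluvial soil. Grading followed criteria set out in an earlier test.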

persian speedwell [2] = test: Test Example 4: herbicidal effect by soil treatment (Table 19, symbol R); type: in vivo, Persian speedwell (Veronica persica)
Method in brief: as §1

blackgrass [3] = test: Test Example 4: herbicidal effect by soil treatment (Table 19, symbol J); type: in vivo, blackgrass (Alopecurus myosuroides)
Method in brief: as §1

velvetleaf [4] = test: Test Example 5: herbicidal effect by foliage application, plastic box (Table 20, symbol M); type: in vivo, velvetleaf (Abutilon theophrasti); conditions: foliage application, evaluated three weeks after application
Method in brief: (§2)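 Plants sown in sterilized diluvial soil and grown 14 days in a greenhouse at 25° C to 30° C, then sprayed on the foliage with the compound's emulsion diluted in water to a predetermined herbicide amount. Injury to weeds and crops scored three weeks after application on a visual rating scale.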

barnyard grass [5] = test: Test Example 4: herbicidal effect by soil treatment (Table 19, symbol H); type: in vivo, barnyard grass (Echinochloa crus-galli)
Method in brief: as §1

barnyard grass [6] = test: Test Example 3: herbicidal effect by foliage application, Wagner pot (Table 18, symbol H); type: in vivo, barnyard grass (Echinochloa crus-galli)
Method in brief: (§3)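 Plants were sown in alluvial soil held under 0.1–0.5 cm standing water and grown 14 days in a greenhouse at 25–30 °C. An emulsifiable formulation, water-diluted to the set dose, was then sprayed onto the foliage, and effects were scored three weeks later using previously defined criteria.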

chickweed [7] = test: Test Example 5: herbicidal effect by foliage application, plastic box (Table 20, symbol P); type: in vivo, common chickweed (Stellaria media); conditions: foliage application, evaluated three weeks after application
Method in brief: as §2

persian speedwell [8] = test: Test Example 5: herbicidal effect by foliage application, plastic box (Table 20, symbol R); type: in vivo, Persian speedwell (Veronica persica); conditions: foliage application, evaluated three weeks after application
Method in brief: as §2

Chinese sprangletop = test: Test Example 3: herbicidal effect by foliage application, Wagner pot (Table 18, symbol D); type: in vivo, chinese sprangletop (Leptochloa chinensis)
Method in brief: as §3

lambsquarters [9] = test: Test Example 5: herbicidal effect by foliage application, plastic box (Table 20, symbol O); type: in vivo, lambsquarters (Chenopodium album); conditions: foliage application, evaluated three weeks after application
Method in brief: as §2

rice flat sedge = test: Test Example 3: herbicidal effect by foliage application, Wagner pot (Table 18, symbol E); type: in vivo, rice flat sedge (Cyperus iria)
Method in brief: as §3

barnyard grass [10] = test: Test Example 5: herbicidal effect by foliage application, plastic box (Table 20, symbol H); type: in vivo, barnyard grass (Echinochloa crus-galli); conditions: foliage application, evaluated three weeks after application
Method in brief: as §2

oval-leafed pondweed = test: Test Example 2: herbicidal activity, application during weed generation under submerged conditions (Table 17, symbol C); type: in vivo, oval-leafed pondweed (Monochoria vaginalis); conditions: AAH 320 g/ha; application during weed generation, submerged conditions
Method in brief: (§4)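 Herbicide emulsion, diluted with water to the chosen amount, is applied onto 4 cm floodwater over alluvial soil where the weeds were co-sown and raised at 25–30° C. Application timing: 1–2 leaves. Assessment: three weeks afterwards.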

southern crabgrass [11] = test: Test Example 4: herbicidal effect by soil treatment (Table 19, symbol F); type: in vivo, southern crabgrass (Digitaria ciliaris)
Method in brief: as §1

chickweed [12] = test: Test Example 4: herbicidal effect by soil treatment (Table 19, symbol P); type: in vivo, common chickweed (Stellaria media)
Method in brief: as §1

windgrass [13] = test: Test Example 4: herbicidal effect by soil treatment (Table 19, symbol L); type: in vivo, windgrass (Apera spica-venti)
Method in brief: as §1

redroot pigweed [14] = test: Test Example 5: herbicidal effect by foliage application, plastic box (Table 20, symbol N); type: in vivo, redroot pigweed (Amaranthus retroflexus); conditions: foliage application, evaluated three weeks after application
Method in brief: as §2

redroot pigweed [15] = test: Test Example 4: herbicidal effect by soil treatment (Table 19, symbol N); type: in vivo, redroot pigweed (Amaranthus retroflexus)
Method in brief: as §1

Italian ryegrass [16] = test: Test Example 5: herbicidal effect by foliage application, plastic box (Table 20, symbol K); type: in vivo, Italian ryegrass (Lolium multiflorum); conditions: foliage application, evaluated three weeks after application
Method in brief: as §2

Japanese bulrush = test: Test Example 2: herbicidal activity, application during weed generation under submerged conditions (Table 17, symbol B); type: in vivo, Japanese bulrush (Schoenoplectus juncoides); conditions: AAH 320 g/ha; application during weed generation, submerged conditions
Method in brief: as §4

late watergrass = test: Test Example 2: herbicidal activity, application during weed generation under submerged conditions (Table 17, symbol A); type: in vivo, late watergrass (Echinochloa oryzicola); conditions: AAH 320 g/ha; application during weed generation, submerged conditions
Method in brief: as §4

green foxtail [17] = test: Test Example 5: herbicidal effect by foliage application, plastic box (Table 20, symbol G); type: in vivo, green foxtail (Setaria viridis); conditions: foliage application, evaluated three weeks after application
Method in brief: as §2

Italian ryegrass [18] = test: Test Example 4: herbicidal effect by soil treatment (Table 19, symbol K); type: in vivo, Italian ryegrass (Lolium multiflorum)
Method in brief: as §1

wild oat [19] = test: Test Example 4: herbicidal effect by soil treatment (Table 19, symbol I); type: in vivo, wild oat (Avena fatua)
Method in brief: as §1

velvetleaf [20] = test: Test Example 4: herbicidal effect by soil treatment (Table 19, symbol M); type: in vivo, velvetleaf (Abutilon theophrasti)
Method in brief: as §1

wild oat [21] = test: Test Example 5: herbicidal effect by foliage application, plastic box (Table 20, symbol I); type: in vivo, wild oat (Avena fatua); conditions: foliage application, evaluated three weeks after application
Method in brief: as §2

blackgrass [22] = test: Test Example 5: herbicidal effect by foliage application, plastic box (Table 20, symbol J); type: in vivo, blackgrass (Alopecurus myosuroides); conditions: foliage application, evaluated three weeks after application
Method in brief: as §2

southern crabgrass [23] = test: Test Example 5: herbicidal effect by foliage application, plastic box (Table 20, symbol F); type: in vivo, southern crabgrass (Digitaria ciliaris); conditions: foliage application, evaluated three weeks after application
Method in brief: as §2

lambsquarters [24] = test: Test Example 4: herbicidal effect by soil treatment (Table 19, symbol O); type: in vivo, lambsquarters (Chenopodium album)
Method in brief: as §1

windgrass [25] = test: Test Example 5: herbicidal effect by foliage application, plastic box (Table 20, symbol L); type: in vivo, windgrass (Apera spica-venti); conditions: foliage application, evaluated three weeks after application
Method in brief: as §2

[26] = amount of applied herbicide 320 g/ha

COCCOCOc1c(C)nn(C)c(=O)c1-c1c(-c2ccc(OCC#N)cc2)sc2ccc(F)cc12 [2-067]
herbicidal effect rating, G: green foxtail (green foxtail [1]; 320 g/ha): 0 (Herbicidal rate of 5% or less (almost no effect)) | herbicidal effect rating, R: persian speedwell (persian speedwell [2]; 320 g/ha): 3 (Herbicidal rate of 40% or more and less than 70%) | herbicidal effect rating, J: blackgrass (blackgrass [3]; 320 g/ha): 0 (Herbicidal rate of 5% or less (almost no effect)) | herbicidal effect on M: velvetleaf (velvetleaf [4]; 320 g/ha): 2 (Herbicidal rate of 20% or more and less than 40%) | herbicidal effect rating, H: barnyard grass (barnyard grass [5]; 320 g/ha): 0 (Herbicidal rate of 5% or less (almost no effect)) | herbicidal effect on H (barnyard grass), rating 0-5 (barnyard grass [6]; 320 g/ha): 4 (Herbicidal rate of 70% or more and less than 90%) | herbicidal effect on P: chickweed (chickweed [7]; 320 g/ha): 4 (Herbicidal rate of 70% or more and less than 90%) | herbicidal effect on R: persian speedwell (persian speedwell [8]; 320 g/ha): 5 (Herbicidal rate of 90% or more (almost completely withered)) | herbicidal effect on D (Chinese sprangletop), rating 0-5 (Chinese sprangletop; 320 g/ha): 5 (Herbicidal rate of 90% or more (almost completely withered)) | herbicidal effect on O: lambsquarters (lambsquarters [9]; 320 g/ha): 4 (Herbicidal rate of 70% or more and less than 90%) | herbicidal effect on E (rice flat sedge), rating 0-5 (rice flat sedge; 320 g/ha): 3 (Herbicidal rate of 40% or more and less than 70%) | herbicidal effect on H: barnyard grass (barnyard grass [10]; 320 g/ha): 1 (Herbicidal rate of 5% or more and less than 20%) | herbicidal effect rating, C: oval-leafed pondweed (oval-leafed pondweed): 0 (Herbicidal rate of 5% or less (almost no effect)) | herbicidal effect rating, F: southern crabgrass (southern crabgrass [11]; 320 g/ha): 0 (Herbicidal rate of 5% or less (almost no effect)) | herbicidal effect rating, P: chickweed (chickweed [12]; 320 g/ha): 0 (Herbicidal rate of 5% or less (almost no effect)) | herbicidal effect rating, L: windgrass (windgrass [13]; 320 g/ha): 0 (Herbicidal rate of 5% or less (almost no effect)) | herbicidal effect on N: redroot pigweed (redroot pigweed [14]; 320 g/ha): 5 (Herbicidal rate of 90% or more (almost completely withered)) | herbicidal effect rating, N: redroot pigweed (redroot pigweed [15]; 320 g/ha): 3 (Herbicidal rate of 40% or more and less than 70%) | herbicidal effect on K: Italian ryegrass (Italian ryegrass [16]; 320 g/ha): 0 (Herbicidal rate of 5% or less (almost no effect)) | herbicidal effect rating, B: Japanese bulrush (Japanese bulrush): 0 (Herbicidal rate of 5% or less (almost no effect)) | herbicidal effect rating, A: late watergrass (late watergrass): 2 (Herbicidal rate of 20% or more and less than 40%) | herbicidal effect on G: green foxtail (green foxtail [17]; 320 g/ha): 1 (Herbicidal rate of 5% or more and less than 20%) | herbicidal effect rating, K: Italian ryegrass (Italian ryegrass [18]; 320 g/ha): 0 (Herbicidal rate of 5% or less (almost no effect)) | herbicidal effect rating, I: wild oat (wild oat [19]; 320 g/ha): 0 (Herbicidal rate of 5% or less (almost no effect)) | herbicidal effect rating, M: velvetleaf (velvetleaf [20]; 320 g/ha): 0 (Herbicidal rate of 5% or less (almost no effect)) | herbicidal effect on I: wild oat (wild oat [21]; 320 g/ha): 0 (Herbicidal rate of 5% or less (almost no effect)) | herbicidal effect on J: blackgrass (blackgrass [22]; 320 g/ha): 0 (Herbicidal rate of 5% or less (almost no effect)) | herbicidal effect on F: southern crabgrass (southern crabgrass [23]; 320 g/ha): 3 (Herbicidal rate of 40% or more and less than 70%) | herbicidal effect rating, O: lambsquarters (lambsquarters [24]; 320 g/ha): 3 (Herbicidal rate of 40% or more and less than 70%) | herbicidal effect on L: windgrass (windgrass [25]; 320 g/ha): 0 (Herbicidal rate of 5% or less (almost no effect))

CCOC(=O)OC(C)Oc1c(C)nn(C)c(=O)c1-c1c(-c2ccc(OC(F)F)cc2)sc2ccc(F)cc12 (stereo not drawn) [2-308]
herbicidal effect on G: green foxtail (green foxtail [1]; [26]): 0 (Herbicidal rate of 5% or less (almost no effect)) | herbicidal effect on R: persian speedwell (persian speedwell [2]; [26]): 5 (Herbicidal rate of 90% or more (almost completely withered)) | herbicidal effect on J: blackgrass (blackgrass [3]; [26]): 0 (Herbicidal rate of 5% or less (almost no effect)) | M: velvetleaf, herbicidal effect (criteria 0-5) (velvetleaf [4]; AAH 320 g/ha): 5 (Herbicidal rate of 90% or more (almost completely withered)) | herbicidal effect on H: barnyard grass (barnyard grass [5]; [26]): 0 (Herbicidal rate of 5% or less (almost no effect)) | herbicidal effect on H: barnyard grass (barnyard grass [6]; [26]): 5 (Herbicidal rate of 90% or more (almost completely withered)) | P: chickweed, herbicidal effect (criteria 0-5) (chickweed [7]; AAH 320 g/ha): 5 (Herbicidal rate of 90% or more (almost completely withered)) | R: persian speedwell, herbicidal effect (criteria 0-5) (persian speedwell [8]; AAH 320 g/ha): 5 (Herbicidal rate of 90% or more (almost completely withered)) | herbicidal effect on D: Chinese sprangletop (Chinese sprangletop; [26]): 3 (Herbicidal rate of 40% or more and less than 70%) | O: lambsquarters, herbicidal effect (criteria 0-5) (lambsquarters [9]; AAH 320 g/ha): 5 (Herbicidal rate of 90% or more (almost completely withered)) | herbicidal effect on E: rice flat sedge (rice flat sedge; [26]): 4 (Herbicidal rate of 70% or more and less than 90%) | H: barnyard grass, herbicidal effect (criteria 0-5) (barnyard grass [10]; AAH 320 g/ha): 4 (Herbicidal rate of 70% or more and less than 90%) | herbicidal effect rating, C: oval-leafed pondweed (oval-leafed pondweed): 0 (Herbicidal rate of 5% or less (almost no effect)) | herbicidal effect on F: southern crabgrass (southern crabgrass [11]; [26]): 0 (Herbicidal rate of 5% or less (almost no effect)) | herbicidal effect on P: chickweed (chickweed [12]; [26]): 0 (Herbicidal rate of 5% or less (almost no effect)) | herbicidal effect on L: windgrass (windgrass [13]; [26]): 0 (Herbicidal rate of 5% or less (almost no effect)) | N: redroot pigweed, herbicidal effect (criteria 0-5) (redroot pigweed [14]; AAH 320 g/ha): 4 (Herbicidal rate of 70% or more and less than 90%) | herbicidal effect on N: redroot pigweed (redroot pigweed [15]; [26]): 0 (Herbicidal rate of 5% or less (almost no effect)) | K: Italian ryegrass, herbicidal effect (criteria 0-5) (Italian ryegrass [16]; AAH 320 g/ha): 0 (Herbicidal rate of 5% or less (almost no effect)) | herbicidal effect rating, B: Japanese bulrush (Japanese bulrush): 0 (Herbicidal rate of 5% or less (almost no effect)) | herbicidal effect rating, A: late watergrass (late watergrass): 3 (Herbicidal rate of 40% or more and less than 70%) | G: green foxtail, herbicidal effect (criteria 0-5) (green foxtail [17]; AAH 320 g/ha): 5 (Herbicidal rate of 90% or more (almost completely withered)) | herbicidal effect on K: Italian ryegrass (Italian ryegrass [18]; [26]): 0 (Herbicidal rate of 5% or less (almost no effect)) | herbicidal effect on I: wild oat (wild oat [19]; [26]): 0 (Herbicidal rate of 5% or less (almost no effect)) | herbicidal effect on M: velvetleaf (velvetleaf [20]; [26]): 0 (Herbicidal rate of 5% or less (almost no effect)) | I: wild oat, herbicidal effect (criteria 0-5) (wild oat [21]; AAH 320 g/ha): 0 (Herbicidal rate of 5% or less (almost no effect)) | J: blackgrass, herbicidal effect (criteria 0-5) (blackgrass [22]; AAH 320 g/ha): 0 (Herbicidal rate of 5% or less (almost no effect)) | F: southern crabgrass, herbicidal effect (criteria 0-5) (southern crabgrass [23]; AAH 320 g/ha): 1 (Herbicidal rate of 5% or more and less than 20%) | herbicidal effect on O: lambsquarters (lambsquarters [24]; [26]): 0 (Herbicidal rate of 5% or less (almost no effect)) | L: windgrass, herbicidal effect (criteria 0-5) (windgrass [25]; AAH 320 g/ha): 0 (Herbicidal rate of 5% or less (almost no effect))
